For seven compounds, fold induction results are on record in US10004701B2, “Methods and compositions for treating infection” (UNIVERSITY OF ROCHESTER, priority 2012, dated 2018).

Structures can show the parent of a compound that is named as a salt. Where two headings read alike, the source gives them in different places.

Common to all, as to assay: AK assay 384-well format, Prestwick library screening
One experiment relates to E. faecium. Format: cell-based, Enterococcus faecium. The following applies: Enterococcus faecium, 3 h, 50 μM final drug concentration.
Another experiment relates to E. coli. Format: cell-based, Escherichia coli. The following applies: Escherichia coli, 3 h, 50 μM final drug concentration.
Another experiment concerns E. cloacae. Format: cell-based, Enterobacter cloacae. The following applies: Enterobacter cloacae, 3 h, 50 μM final drug concentration.
The subject of experiment [1] is S. aureus strain USA300-0114. Format: cell-based, Staphylococcus aureus. The following applies: Staphylococcus aureus, USA300, 3 h, 50 μM final drug concentration.
Another experiment deals with P. aeruginosa. The experiment is classed as cell-based, Pseudomonas aeruginosa. The following applies: Pseudomonas aeruginosa, 3 h, 50 μM final drug concentration.
In the next experiment the test system is K. pneumoniae. The experiment is classed as cell-based, Klebsiella pneumoniae. The following applies: Klebsiella pneumoniae, 3 h, 50 μM final drug concentration.
The test system of experiment [2] is A. baumannii strain 98-37-09. The experiment is classed as cell-based, Acinetobacter baumannii. The following applies: Acinetobacter baumannii, 983709, 3 h, 50 μM final drug concentration.
[3] abbreviates: planktonic E. faecium, 384-well, cutoff for positive-scoring molecules 3-fold increase, read-out: AK-based Prestwick Library Screening Results: E. faecium (increase in extracellular AK activity).
[4] abbreviates: planktonic E. coli, 384-well, cutoff for positive-scoring molecules 3-fold increase, read-out: AK-based Prestwick Library Screening Results: E. coli (increase in extracellular AK activity).
Where [5] appears, read: planktonic E. cloacae, 384-well, cutoff for positive-scoring molecules 3-fold increase, read-out: AK-based Prestwick Library Screening Results: E. cloacae (increase in extracellular AK activity).
The mark [6] stands for this setting: planktonic S. aureus, 384-well, cutoff for positive-scoring molecules 3-fold increase, read-out: AK-based Prestwick Library Screening Results: S. aureus (increase in extracellular AK activity).
[7] abbreviates: planktonic P. aeruginosa, 384-well, cutoff for positive-scoring molecules 3-fold increase, read-out: AK-based Prestwick Library Screening Results: P. aeruginosa (increase in extracellular AK activity).
Where [8] appears, read: planktonic K. pneumoniae, 384-well, cutoff for positive-scoring molecules 3-fold increase, read-out: AK-based Prestwick Library Screening Results: K. pneumoniae (increase in extracellular AK activity).
[9] abbreviates: planktonic A. baumannii, 384-well, cutoff for positive-scoring molecules 3-fold increase, read-out: AK-based Prestwick Library Screening Results: A. baumannii (increase in extracellular AK activity).

As to `NC(N)=NCCCCN=C(N)N` [Arcaine sulfate], the fold induction at 50 µM with E. faecium (cutoff for positive-scoring molecules 3-fold increase, read-out: AK-based Prestwick Library Screening Results, E. faecium (fold increase in extracellular AK activity)) turned out to be 0.6; in the experiment with E. coli (cutoff for positive-scoring molecules 3-fold increase, read-out: AK-based Prestwick Library Screening Results, E. coli (fold increase in extracellular AK activity)), 0.7; with E. cloacae (cutoff for positive-scoring molecules 3-fold increase, read-out: AK-based Prestwick Library Screening Results, E. cloacae (fold increase in extracellular AK activity)) it was 1.2; in experiment [1] (cutoff for positive-scoring molecules 3-fold increase, read-out: AK-based Prestwick Library Screening Results, S. aureus (fold increase in extracellular AK activity)) it was 0.9; in the experiment on P. aeruginosa (cutoff for positive-scoring molecules 3-fold increase, read-out: AK-based Prestwick Library Screening Results, P. aeruginosa (fold increase in extracellular AK activity)), 0.8; with K. pneumoniae (cutoff for positive-scoring molecules 3-fold increase, read-out: AK-based Prestwick Library Screening Results, K. pneumoniae (fold increase in extracellular AK activity)), 0.7. For the same compound, the fold induction at 50 µM in experiment [2] (cutoff for positive-scoring molecules 3-fold increase, read-out: AK-based Prestwick Library Screening Results, A. baumannii (fold increase in extracellular AK activity)) stood at 0.8.

For the compound `COC(=O)C1=CCCN(C)C1` [Arecoline hydrobromide], the fold induction at 50 µM in the experiment with E. faecium (planktonic E. faecium, 384-well, […], read-out: AK-based Prestwick Library Screening Results: E. faecium (increase in extracellular AK activity)) came to 0.9; with E. coli (planktonic E. coli, 384-well, […], read-out: AK-based Prestwick Library Screening Results: E. coli (increase in extracellular AK activity)) it was 0.4; in the experiment on E. cloacae (planktonic E. cloacae, 384-well, […], read-out: AK-based Prestwick Library Screening Results: E. cloacae (increase in extracellular AK activity)), 0.3; in experiment [1] (planktonic S. aureus, 384-well, […], read-out: AK-based Prestwick Library Screening Results: S. aureus (increase in extracellular AK activity)), 0.4; in the experiment on P. aeruginosa (planktonic P. aeruginosa, 384-well, […], read-out: AK-based Prestwick Library Screening Results: P. aeruginosa (increase in extracellular AK activity)), 0.4; with K. pneumoniae (planktonic K. pneumoniae, 384-well, […], read-out: AK-based Prestwick Library Screening Results: K. pneumoniae (increase in extracellular AK activity)), 0.4. Moreover, in experiment [2] (planktonic A. baumannii, 384-well, […], read-out: AK-based Prestwick Library Screening Results: A. baumannii (increase in extracellular AK activity)), the fold induction at 50 µM was 0.4.

For the compound `C[C@@H]1CC[C@H]2[C@@H](C)C(=O)O[C@@H]3O[C@@]4(C)CC[C@@H]1[C@]32OO4` [Artemisinin], the fold induction at 50 µM with E. faecium (planktonic E. faecium, cutoff for positive-scoring molecules 3-fold increase, read-out: AK-based Prestwick Library Screening Results, E. faecium (increase in extracellular AK activity)) is 0.9; in the experiment with E. coli (planktonic E. coli, cutoff for positive-scoring molecules 3-fold increase, read-out: AK-based Prestwick Library Screening Results, E. coli (increase in extracellular AK activity)) it was 0.5; in the experiment with E. cloacae (planktonic E. cloacae, cutoff for positive-scoring molecules 3-fold increase, read-out: AK-based Prestwick Library Screening Results, E. cloacae (increase in extracellular AK activity)) it was 0.7; in experiment [1] (planktonic S. aureus, cutoff for positive-scoring molecules 3-fold increase, read-out: AK-based Prestwick Library Screening Results, S. aureus (increase in extracellular AK activity)), 0.5; with P. aeruginosa (planktonic P. aeruginosa, cutoff for positive-scoring molecules 3-fold increase, read-out: AK-based Prestwick Library Screening Results, P. aeruginosa (increase in extracellular AK activity)), 0.6; in the experiment with K. pneumoniae (planktonic K. pneumoniae, cutoff for positive-scoring molecules 3-fold increase, read-out: AK-based Prestwick Library Screening Results, K. pneumoniae (increase in extracellular AK activity)), 0.6. In addition, in experiment [2] (planktonic A. baumannii, cutoff for positive-scoring molecules 3-fold increase, read-out: AK-based Prestwick Library Screening Results, A. baumannii (increase in extracellular AK activity)), the fold induction at 50 µM was found to be 0.7.

`CCCNC(C)C(=O)Nc1c(C)csc1C(=O)OC` (stereo not shown) [Articaine hydrochloride]: the fold induction at 50 µM with E. faecium (planktonic E. faecium, positive cutoff 3-fold increase, read-out: AK-based Prestwick library screening result, E. faecium (fold increase in extracellular AK activity)) came out at 1.2; in the experiment on E. coli (planktonic E. coli, positive cutoff 3-fold increase, read-out: AK-based Prestwick library screening result, E. coli (fold increase in extracellular AK activity)), 1.1; in the experiment on E. cloacae (planktonic E. cloacae, positive cutoff 3-fold increase, read-out: AK-based Prestwick library screening result, E. cloacae (fold increase in extracellular AK activity)) it was 1.6; in experiment [1] (planktonic S. aureus, positive cutoff 3-fold increase, read-out: AK-based Prestwick library screening result, S. aureus (fold increase in extracellular AK activity)), 1.1; with P. aeruginosa (planktonic P. aeruginosa, positive cutoff 3-fold increase, read-out: AK-based Prestwick library screening result, P. aeruginosa (fold increase in extracellular AK activity)), 1; in the experiment with K. pneumoniae (planktonic K. pneumoniae, positive cutoff 3-fold increase, read-out: AK-based Prestwick library screening result, K. pneumoniae (fold increase in extracellular AK activity)), 1.1. Besides, the fold induction at 50 µM in experiment [2] (planktonic A. baumannii, positive cutoff 3-fold increase, read-out: AK-based Prestwick library screening result, A. baumannii (fold increase in extracellular AK activity)) came out at 1.2.

Take `O=C1O[C@H]([C@@H](O)CO)C(O)=C1O` [Ascorbic acid]: the fold induction at 50 µM in the experiment with E. faecium (setting [3]) was 0.9; in the experiment on E. coli (setting [4]), 0.5; with E. cloacae (setting [5]) it was 0.4; in experiment [1] (setting [6]), 0.4; in the experiment with P. aeruginosa (setting [7]), 0.3; in the experiment with K. pneumoniae (setting [8]) it was 0.5. Moreover, the fold induction at 50 µM in experiment [2] (setting [9]) is 0.4.

For `COc1ccc(CCN2CCC(Nc3nc4ccccc4n3Cc3ccc(F)cc3)CC2)cc1` [Astemizole], the fold induction at 50 µM in the experiment on E. faecium (setting [3]) was determined as 1; with E. coli (setting [4]), 1.3; in the experiment on E. cloacae (setting [5]) it was 1.6; in experiment [1] (setting [6]) it was 2.2; in the experiment on P. aeruginosa (setting [7]) it was 1; in the experiment on K. pneumoniae (setting [8]), 1.1. Further, the fold induction at 50 µM in experiment [2] (setting [9]) amounted to 1.6.

`O=C1C(O)=C([C@H]2CC[C@H](c3ccc(Cl)cc3)CC2)C(=O)c2ccccc21` [Atovaquone]: the fold induction at 50 µM in the experiment on E. faecium (planktonic, cutoff for positive 3-fold increase, read-out: AK-based Prestwick Library Screening Results, E. faecium (fold increase in extracellular AK activity)) is 1; with E. coli (planktonic, cutoff for positive 3-fold increase, read-out: AK-based Prestwick Library Screening Results, E. coli (fold increase in extracellular AK activity)) it was 1.1; with E. cloacae (planktonic, cutoff for positive 3-fold increase, read-out: AK-based Prestwick Library Screening Results, E. cloacae (fold increase in extracellular AK activity)), 1.4; in experiment [1] (planktonic, cutoff for positive 3-fold increase, read-out: AK-based Prestwick Library Screening Results, S. aureus (fold increase in extracellular AK activity)), 1.2; in the experiment on P. aeruginosa (planktonic, cutoff for positive 3-fold increase, read-out: AK-based Prestwick Library Screening Results, P. aeruginosa (fold increase in extracellular AK activity)), 1; in the experiment with K. pneumoniae (planktonic, cutoff for positive 3-fold increase, read-out: AK-based Prestwick Library Screening Results, K. pneumoniae (fold increase in extracellular AK activity)) it was 0.8. Also, the fold induction at 50 µM in experiment [2] (planktonic, cutoff for positive 3-fold increase, read-out: AK-based Prestwick Library Screening Results, A. baumannii (fold increase in extracellular AK activity)) was 1.2.
